In test [1] the test system is db/db mice. The test is described as follows: In vivo assay in db/db mice (postprandial glycemia). To be noted: 30 mg/kg per os, 4 hrs after drug administration, percentage of control (group 1: vehicle treated mice). How it is done: The following assay aims at determining the anti-diabetic effect of the test compounds of formula (I) in a model of postprandial glycemia in db/db mice, in vivo.
The assay was performed as follows:
A total of 18 db/db mice (about 8-9 weeks; obtained from IFFACREDO, l'Arbreste, France) were fasted during 20 hours.
2 groups, each consisting of 6 animals were formed: • Group 1: The animals were administered (per os) a dose of 10 mL/kg of vehicle (control). • Group 2: The animals were administered (per os) a dose of 30 mg/kg of the test compound according to formula (I) solubilized in the vehicle.
After oral administration of the compounds of formula (I) solubilized or suspended in CarboxyMethylCellulose (0.5%), Tween 20 (0.25%) and water as vehicle, the animals had access to conmnercial food (D04, UAR, Villeinoisson/Orge, France) ad libitum. The diabetic state of the mice was verified by determining the blood glucose level before drug administration. Blood glucose and serum insulin levels were then determined 4 hrs after drug administration.
The determination of the blood glucose level was performed using a glucometer (Precision Q.I.D., Medisense, Abbot, ref. 212.62.31).
The determination of the Insulin level was performed using an ELISA kit (Crystal CHEM, Ref. INSK R020).
Changes in blood glucose and serum insulin of drug treated mice were expressed as a percentage of control (group 1: vehicle treated mice).

Test [2] deals with T1, PTP1B (Homo sapiens, UniProt P18031).
T1 construct: using the catalytic core of a human recombinant PTP as the enzyme; made in house
T1 sequence (P18031 3-277 limits assumed): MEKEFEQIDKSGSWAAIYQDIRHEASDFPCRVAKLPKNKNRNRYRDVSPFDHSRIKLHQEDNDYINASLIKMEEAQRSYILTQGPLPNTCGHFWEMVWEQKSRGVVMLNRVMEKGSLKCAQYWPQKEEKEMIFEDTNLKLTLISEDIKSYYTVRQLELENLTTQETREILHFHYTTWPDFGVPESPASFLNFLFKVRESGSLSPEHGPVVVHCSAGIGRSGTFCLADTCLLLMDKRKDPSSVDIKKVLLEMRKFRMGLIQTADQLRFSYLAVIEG
The test is described as follows: PTP Enzyme Assay (DiFMUP), PTP1B. Type of test: biochemical. To be noted: 5 μM DiFMUP, catalytic core of human recombinant PTP; read-out: IC50 value in respect of PTP1B. How it is done: The PTP Enzyme Assay aims at determining the extent of inhibition of PTP's, e.g. of PTP1B, SEP-1, SHP-2, GLEPP-1 or PTP-H1 in the presence of a test compound of lo formula (I). The inhibition is illustrated by IC50 values which denote the concentration of test compound necessary to achieve an inhibition of 50% of said PTP's using the following concentration of the PTP substrate DiFMUP: • 5 μM DiFMUP for PTP1B and PTP-H1; • 20 μM DiFMUP for SHP-1 and SHP-2; • 30 μM DiFMUP for GLEPP-1. a) PTPs Cloning
The cloning and expression of the catalytic domain e.g. of PTP1B, may be performed as described in J. Biol. Chem. 2000, 275(13), pp 9792-9796.
(§1) The DiFMUP assay allows to follow the dephosphorylation of DiFMUP (6,8-DiFluoro-4-MethylUmbelliferyl Phosphate)—which is the PTP substrate—mediated by PTP into its stable hydrolysis product, i.e. DiFMU (6,8-difluoro-7-hydroxy coumarin). Due to its rather low pKa and its high quantum yield, DiFMU allows to measure both acidic and alkaline phosphatase activities with a great sensitivity.
(§2) Assays were performed in a 96 well plate format, using the catalytic core of a human recombinant PTP as the enzyme and 6,8-DiFluoro-4-MethylUmbelliferyl Phosphate (DiFMUP, Molecular Probes, D-6567) as a substrate. Compounds to be tested were dissolved in 100% DMSO at a concentration of 2 mM. Subsequent dilutions of the test compounds (to yield a concentration of 100, 30, 10, 3, 1,0.3, 0.1, 0.03, 0.01, 0.001 μM) were performed in 60% DMSO manually. 8 μl of diluted compound or vehicle (60% DMSO=control) was distributed to a black Costar 96 well plate. […] The reaction ran for 30 minutes at room temperature before reading the fluorescence intensity (integral or intensity) on a Perkin-Elmer Victor 2 spectrofluorimeter (excitation of 6,8-difluoro-7-hydroxy coumarin is at 355 nm, the emission at 460 nm, for 0.1 s). The percentage of inhibition is determined by measuring the relative fluorescence ion absence of a test compound (PTP inhibitor), i.e. with the solvent alone (5% DMSO). The IC50 values for inhibition were determined in triplicates.

Test [3] addresses T2, GLEPP-1 (Homo sapiens, UniProt Q16827).
T2 construct: using the catalytic core of a human recombinant PTP as the enzyme; made in house
T2 sequence (Q16827 938-1195 limits assumed): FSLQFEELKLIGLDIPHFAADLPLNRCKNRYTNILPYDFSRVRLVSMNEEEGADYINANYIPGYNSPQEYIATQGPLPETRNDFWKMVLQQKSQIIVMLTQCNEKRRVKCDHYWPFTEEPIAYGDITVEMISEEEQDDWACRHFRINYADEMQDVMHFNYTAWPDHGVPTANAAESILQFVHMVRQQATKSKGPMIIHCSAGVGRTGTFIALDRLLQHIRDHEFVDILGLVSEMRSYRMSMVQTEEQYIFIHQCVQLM
The test is described as follows: PTP Enzyme Assay (DiFMUP), GLEPP-1. Type of test: biochemical.
Excerpt: The PTP Enzyme Assay aims at determining the extent of inhibition of PTP's, e.g. of PTP1B, SEP-1, SHP-2, GLEPP-1 or PTP-H1 in the presence of a test compound of lo formula (I).
as §1
Compounds to be tested were dissolved in 100% DMSO at a concentration of 2 mM. Subsequent dilutions of the test compounds (to yield a concentration of 100, 30, 10, 3, 1,0.3, 0.1, 0.03, 0.01, 0.001 μM) were performed in 60% DMSO manually. 8 μl of diluted compound or vehicle (60% DMSO=control) was distributed to a black Costar 96 well plate. 42 μl of human recombinant PTP enzyme diluted in assay buffer (20 mM Tris HCl pH 7.5, 0.01% IGEPAL CA-630, 0.1 mM ethylenediaminetetracetic acid, 1 mM DL-Dithiothreitol) can be added to the dilutions of compound or vehicule (distributed to a black Costar 96-well plate), followed by 50 μl of DiFMUP diluted in the assay buffer. The reaction ran for 30 minutes at room temperature before reading the fluorescence intensity (integral or intensity) on a Perkin-Elmer Victor 2 spectrofluorimeter (excitation of 6,8-difluoro-7-hydroxy coumarin is at 355 nm, the emission at 460 nm, for 0.1 s). The percentage of inhibition is determined by measuring the relative fluorescence ion absence of a test compound (PTP inhibitor), i.e. with the solvent alone (5% DMSO). The IC50 values for inhibition were determined in triplicates.

Test [4] has as its target T3, SHP-1 (Homo sapiens, UniProt P29350).
T3 construct: using the catalytic core of a human recombinant PTP as the enzyme; made in house
T3 sequence (P29350 244-515 limits assumed): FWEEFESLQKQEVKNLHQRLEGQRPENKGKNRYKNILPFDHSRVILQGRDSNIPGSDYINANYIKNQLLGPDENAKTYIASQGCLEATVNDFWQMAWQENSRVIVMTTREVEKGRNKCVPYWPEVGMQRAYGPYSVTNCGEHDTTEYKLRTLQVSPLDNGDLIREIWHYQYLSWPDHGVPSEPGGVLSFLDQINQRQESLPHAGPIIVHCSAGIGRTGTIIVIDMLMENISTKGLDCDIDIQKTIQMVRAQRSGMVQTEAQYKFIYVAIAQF
Briefly: PTP Enzyme Assay (DiFMUP), SHP-1. Format: biochemical. Conditions: 20 μM DiFMUP, catalytic core of human recombinant PTP; read-out: IC50 value in respect of SHP-1. How it is done:
(§3) The PTP Enzyme Assay aims at determining the extent of inhibition of PTP's, e.g. of PTP1B, SEP-1, SHP-2, GLEPP-1 or PTP-H1 in the presence of a test compound of lo formula (I). The inhibition is illustrated by IC50 values which denote the concentration of test compound necessary to achieve an inhibition of 50% of said PTP's using the following concentration of the PTP substrate DiFMUP: • 5 μM DiFMUP for PTP1B and PTP-H1; • 20 μM DiFMUP for SHP-1 and SHP-2; • 30 μM DiFMUP for GLEPP-1. a) PTPs Cloning […]
as §2, with “substrate.” for “substrate. Compounds to be tested were dissolved in 100% DMSO at a concentration of 2 mM. Subsequent dilutions of the test compounds (to yield a concentration of 100, 30, 10, 3, 1,0.3, 0.1, 0.03, 0.01, 0.001 μM) were performed in 60% DMSO manually. 8 μl of diluted compound or vehicle (60% DMSO=control) was distributed to a black Costar 96 well plate.”

The target of test [5] is T4, SHP-2 (Homo sapiens, UniProt Q06124).
T4 construct: using the catalytic core of a human recombinant PTP as the enzyme; made in house
T4 sequence (Q06124 247-517 limits assumed): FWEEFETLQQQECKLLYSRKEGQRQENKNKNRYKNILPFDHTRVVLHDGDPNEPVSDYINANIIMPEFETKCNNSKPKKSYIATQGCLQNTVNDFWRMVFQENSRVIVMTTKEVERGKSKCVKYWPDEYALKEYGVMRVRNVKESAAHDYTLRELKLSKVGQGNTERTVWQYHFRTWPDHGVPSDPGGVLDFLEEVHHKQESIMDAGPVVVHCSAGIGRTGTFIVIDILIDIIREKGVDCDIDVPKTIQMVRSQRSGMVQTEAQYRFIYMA
The test is described as follows: PTP Enzyme Assay (DiFMUP), SHP-2. Format: biochemical. To be noted: 20 μM DiFMUP, catalytic core of human recombinant PTP; read-out: IC50 value in respect of SHP-2. The procedure: as §3
as §2, with “substrate.” for “substrate. Compounds to be tested were dissolved in 100% DMSO at a concentration of 2 mM. Subsequent dilutions of the test compounds (to yield a concentration of 100, 30, 10, 3, 1,0.3, 0.1, 0.03, 0.01, 0.001 μM) were performed in 60% DMSO manually. 8 μl of diluted compound or vehicle (60% DMSO=control) was distributed to a black Costar 96 well plate.”

The target in test [6] is T5, PTP-H1 (Homo sapiens, UniProt P26045).
T5 construct: using the catalytic core of a human recombinant PTP as the enzyme; made in house
T5 sequence (P26045 646-901 limits assumed): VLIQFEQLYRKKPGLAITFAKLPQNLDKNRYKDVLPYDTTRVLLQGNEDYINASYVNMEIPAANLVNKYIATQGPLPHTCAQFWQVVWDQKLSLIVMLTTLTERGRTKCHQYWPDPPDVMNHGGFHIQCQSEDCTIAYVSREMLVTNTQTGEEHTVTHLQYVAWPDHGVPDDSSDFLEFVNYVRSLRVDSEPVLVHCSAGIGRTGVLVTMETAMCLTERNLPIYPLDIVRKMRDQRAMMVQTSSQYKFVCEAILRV
Briefly: PTP Enzyme Assay (DiFMUP), PTP-H1. Format: biochemical. To be noted: 5 μM DiFMUP, catalytic core of human recombinant PTP; read-out: IC50 value in respect of PTP-H1. The procedure:
as §3
as §2, with “substrate.” for “substrate. Compounds to be tested were dissolved in 100% DMSO at a concentration of 2 mM. Subsequent dilutions of the test compounds (to yield a concentration of 100, 30, 10, 3, 1,0.3, 0.1, 0.03, 0.01, 0.001 μM) were performed in 60% DMSO manually. 8 μl of diluted compound or vehicle (60% DMSO=control) was distributed to a black Costar 96 well plate.”

The mark [7] stands for this setting: 30 μM DiFMUP, catalytic core of human recombinant PTP, read-out: IC50 value in respect of GLEPP-1.

Counter-ions that a name gives are not always drawn. Like-named read-outs stand apart in the source and are kept apart here.

Take “5-[(1-{4-[(4-butylphenyl)ethynyl]phenyl}pentyl)oxy]-2-hydroxybenzoic acid [Example 16]”: in test [1], the “Decrease in blood glucose” value is 37% and the “Decrease in serum insulin” value came to 28%.
As to `CCCCc1ccc(C#Cc2ccc(CN(Cc3ccc(OCC(=O)O)cc3)S(=O)(=O)/C=C/c3ccccc3)cc2)cc1` [Example 8, {4-[({4-[(4-butylphenyl)ethynyl]benzyl}{[(E)-2-phenylvinyl]sulfonyl}-amino)methyl]phenoxy}acetic acid], the IC50 (in general, the midpoint of a concentration-inhibition curve) came to 510 nM in test [2]; 620 nM in test [3] (setting [7]); 820 nM in test [4]; 800 nM in test [5]; 9640 nM in test [6].
Regarding `CCCCCCN(Cc1ccc(C#Cc2ccc(CCCC)cc2)cc1)C(=O)c1ccc(O)c(C(=O)O)c1` [Example 19, 5-[{{4-[(4-butylphenyl)ethynyl]benzyl}(hexyl)amino]carbonyl}-2-hydroxybenzoic acid, N-methyl-D-glucamine (i.e. 1-deoxy-1-(methylamino)-glucitol) salt], in test [1], the “Decrease in blood glucose” value worked out at 20% and the “Decrease in serum insulin” value worked out at 43%.
Take `CCCCCCN(Cc1ccc(C#Cc2ccccc2)cc1)c1ccc(F)c(C(=O)O)c1` [Example 30, 2-fluoro-5-{hexyl[4-(phenylethynyl)benzyl]amino}benzoic acid, N-methyl-D-glucamine (i.e. 1-deoxy-1-(methylamino)glucitol) salt]: the results for the IC50 in test [2] and in test [3] were 800 nM and 860 nM, respectively.
Turning to `CCCCc1ccc(C#Cc2ccc(CN(CCC(C)(C)C)c3ccc(F)c(C(=O)O)c3)cc2)cc1` [Example 35, 5-[{4-[(4-butylphenyl)ethynylbenzyl}(3,3-dimethylbutyl)amino]-2-fluorobenzoic acid, N-methyl-D-glucamine (i.e. 1-deoxy-1-(methylamino)glucitol)salt], the IC50 in test [2] came out at 80 nM; in test [3] (setting [7]) it was 210 nM.
Turning to `CCCCCCN(C(=O)c1ccc(C#Cc2ccc(CCCC)cc2)cc1)c1ccc(F)c(C(=O)O)c1` [Example 55, 5-[{4-[(4-butylphenyl)ethynyl]benzoyl}(hexyl)amino]-2-fluorobenzoic acid, N-methyl-D-glucamine (i.e. 1-deoxy-1-(methylamino)glucitol)salt], in test [1], the “Decrease in blood glucose” value came out at 46% and the “Decrease in serum insulin” value worked out at 75%.

The values above are taken from patent US7947851B2, “1,1′-(1,2-ethynediyl)bis-benzene derivatives as PTP 1-B inhibitors” (Merck Serono SA, priority 2004, dated 2011).
